Columns and labels:
[1] = test system: rat elastase-induced emphysema; assay: Repair of alveoli in elastase-induced emphysema (rat model); assay type: in vivo, male Sprague Dawley rats; conditions: oral, once daily starting 21 days post elastase injury, morphometric analysis of lung sections
Description: A RAR selective agonist according to the invention was evaluated for its effects on alveolar repair in a rat model for rat elastase-induced emphysema in accordance to D. Massaro et al. Nature Medicine1997, 3, 675. Animals were divided into treatment groups of approximately eight. Lung inflammation and alveolar damage was induced in male Sprague Dawley rats by a single instillation of pancreatic elastase(porcine derived, Calbiochem) 2 U/gram body mass. Three weeks post injury, all-trans retinoic acid or RAR agonist test compound was dissolved in dimethyl-sulfoxide (20 mg/ml) and stored at −20 C. Fresh working stocks were prepared daily by dilution in PBS to a final concentration of 2mg/ml. Animals were dosed once daily with the retinoid by intraperitoneal injection or orally, starting 21 days post injury. Control groups were challenged with elastase and 21 days later treated with Vehicle (DMSO/PBS) for 14 days. Animals were sacrificed 24 hours after the last dose by exsanguination under deep anesthesia.
The lungs were inflated with 10% neutral buffered formalin by intratracheal instillation at a constant rate (1 ml/gram body mass/min). The lung was excised and immersed in fixative for 24 hours prior to processing. Standard methods were used to prepare 5 μm paraffin sections. Sections were stained with Hematoxylin and Eosin (H%E). Computerized Morphometric analysis was performed to determine the average alveolar size and alveolar number.

SMILES | % repair area ([1]; dose 0.0001 mg/kg) | % repair area ([1]; dose 0.001 mg/kg) | % repair area ([1]; dose 0.01 mg/kg) | % repair area ([1]; dose 0.1 mg/kg) | melting point
CCCCCCc1cc2c(cc1/C=C/c1ccc(C(=O)O)s1)C(C)(C)CCC2(C)C [Example 9, (E)-5-[2-(3-Hexyl-5,5,8,8-tetramethyl-5,6,7,8-tetrahydro-naphthalen-2-yl)-vinyl]-thiophene-2-carboxylic Acid] | 38% | 42% | 18% | 42% | –
CCCCCc1cc2c(cc1/C=C/c1ccc(C(=O)O)s1)C(C)(C)CCC2(C)C [Example 9.2, (E)-5-[2-(3-pentyl-5,5,8,8-tetramethyl-5,6,7,8-tetrahydro-naphthalen-2-yl)-vinyl]thiophene-2-carboxylic acid] | – | – | – | – | 176 to 177 °C

— patent US6403810B2, “Thiophene derivatives” (Hoffmann-La Roche Inc., priority 2000, dated 2002)
